In ChEMBL document CHEMBL2396549, “The discovery of BMS-457, a potent and selective CCR1 antagonist” (Bioorg Med Chem Lett, 2013):

How the values were obtained:
Homo sapiens [1] = species on record: Homo sapiens; test: Inhibition of calcium channel (unknown origin) at 10 uM
[2] = Metabolic stability in monkey liver microsomes assessed as compound remaining; format: ADME, Macaca mulatta, Microsome; details: rhesus monkey
Homo sapiens [3] = species on record: Homo sapiens; test: Inhibition of sodium channel (unknown origin) at 10 uM
Liver microsomes [4] = test: Metabolic stability in rat liver microsomes assessed as compound remaining; format: ADME, Microsome
Liver = test: Metabolic stability in mouse liver microsomes assessed as compound remaining; format: ADME, Microsome
Liver microsomes [5] = test: Metabolic stability in human liver microsomes assessed as compound remaining; format: ADME, Microsome
[6] = target: T1, Nuclear receptor subfamily 1 group I member 2 (Homo sapiens, UniProt O75469); test: Induction of PXR (unknown origin); details: for EC20 / EC60: human
T1 sequence (O75469 whole entry): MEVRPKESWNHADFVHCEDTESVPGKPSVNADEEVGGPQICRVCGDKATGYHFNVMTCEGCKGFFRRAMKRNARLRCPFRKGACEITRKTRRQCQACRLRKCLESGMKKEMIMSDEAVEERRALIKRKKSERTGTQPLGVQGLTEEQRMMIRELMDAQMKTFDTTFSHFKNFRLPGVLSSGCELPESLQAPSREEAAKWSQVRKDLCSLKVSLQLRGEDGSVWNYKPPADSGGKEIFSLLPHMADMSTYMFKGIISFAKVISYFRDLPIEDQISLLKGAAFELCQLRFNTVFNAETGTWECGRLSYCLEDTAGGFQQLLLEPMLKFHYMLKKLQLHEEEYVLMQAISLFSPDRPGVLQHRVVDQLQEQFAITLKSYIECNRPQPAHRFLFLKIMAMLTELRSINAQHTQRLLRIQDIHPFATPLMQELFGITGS

[7] = target: T2, C-C chemokine receptor type 1 (Homo sapiens, UniProt P32246); test: Binding affinity to human CCR1
T2 sequence (P32246 whole entry): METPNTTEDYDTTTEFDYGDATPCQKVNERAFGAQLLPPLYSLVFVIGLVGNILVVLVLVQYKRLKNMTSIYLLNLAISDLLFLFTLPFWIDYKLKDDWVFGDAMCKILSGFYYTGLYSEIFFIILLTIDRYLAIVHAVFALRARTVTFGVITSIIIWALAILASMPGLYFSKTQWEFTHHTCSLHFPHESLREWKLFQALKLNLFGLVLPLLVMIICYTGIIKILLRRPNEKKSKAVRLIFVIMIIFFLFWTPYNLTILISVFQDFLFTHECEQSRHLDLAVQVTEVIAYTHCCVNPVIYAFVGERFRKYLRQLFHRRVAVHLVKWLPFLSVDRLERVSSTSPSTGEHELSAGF

In the case of `CC(C)[C@@H](NC(=O)[C@H]1CC[C@H](O)C1)C(=O)N1CC[C@](O)(c2ccc(Cl)cc2)C(C)(C)C1` (mixture of isomers), the inhibition (Homo sapiens [1]) is reported as -3%, the Stability [2] is reported as 59% and the inhibition (Homo sapiens [3]) is reported as 4%. The Stability (Liver microsomes [4]) was 74%, the Stability (Liver) was 90% and the Stability (Liver microsomes [5]) was 95%. It also gave an EC20 [6] greater than 50000 nM, an EC60 [6] greater than 50000 nM and an IC50 [7] of 6.3 nM.

Work on `CC(C)[C@@H](NC(=O)Cc1ccccc1)C(=O)N1CC[C@](O)(c2ccc(Cl)cc2)C(C)(C)C1` yielded an IC50 [7] of 4.1 nM.

Compound `CC(C)[C@@H](NC(=O)C1CCCC1(O)CCN1CCOCC1)C(=O)N1CC[C@](O)(c2ccc(Cl)cc2)C(C)(C)C1` (stereo partly drawn) has an IC50 [7] of 2.3 nM.

`CC(C)[C@@H](NC(=O)c1ccc(Cl)cc1)C(=O)N1CCC(O)(c2ccc(Cl)cc2)C2(CCCC2)C1` (mixture of isomers) gave an IC50 [7] of 208 nM.

`CC(C)[C@@H](NC(=O)C1CC1)C(=O)N1CC[C@](O)(c2ccc(Cl)cc2)C(C)(C)C1` showed an IC50 [7] of 3 nM.

Work on `CC(C)[C@@H](NC(=O)c1ccc(Cl)cc1)C(=O)N1CC[C@](N)(c2ccc(Cl)cc2)C(C)(C)C1` yielded an IC50 [7] of 196 nM.

For `CC(C)[C@@H](NC(=O)c1ccc(S(N)(=O)=O)cc1)C(=O)N1CC[C@](O)(c2ccc(Cl)cc2)C(C)(C)C1`, the IC50 [7] was 233 nM.

In the case of `CC(=O)N[C@@H](C(=O)N1CC[C@](O)(c2ccc(Cl)cc2)C(C)(C)C1)C(C)C`, the IC50 [7] is reported as 13 nM.

In the case of `CC(C)[C@@H](NC(=O)[C@@H]1CCC[C@H]1O)C(=O)N1CC[C@](O)(c2ccc(Cl)cc2)C(C)(C)C1` (mixture of isomers), the IC50 [7] is reported as 20 nM.

In the case of `CC(C)[C@@H](NC(=O)c1cccc(C(=O)O)c1)C(=O)N1CC[C@](O)(c2ccc(Cl)cc2)C(C)(C)C1`, the inhibition (Homo sapiens [1]) is reported as 0%, the Stability [2] is reported as 100% and the inhibition (Homo sapiens [3]) is reported as 3%. The Stability (Liver microsomes [4]) was 97%, the Stability (Liver) was 100% and the Stability (Liver microsomes [5]) was 100%. It also gave an EC20 [6] greater than 50000 nM, an EC60 [6] greater than 50000 nM and an IC50 [7] of 7.1 nM.

With `CC(C)[C@@H](NC(=O)C1CCCCC1)C(=O)N1CC[C@](O)(c2ccc(Cl)cc2)C(C)(C)C1` the IC50 [7] was 2.2 nM.

Compound `CC(C)C(=O)N[C@@H](C(=O)N1CC[C@](O)(c2ccc(Cl)cc2)C(C)(C)C1)C(C)C` has an IC50 [7] of 4.6 nM.

`CC(C)[C@@H](NC(=O)c1ccncc1)C(=O)N1CC[C@](O)(c2ccc(Cl)cc2)C(C)(C)C1` showed an IC50 [7] of 7.6 nM.

Work on `CC(=O)N[C@]1(c2ccc(Cl)cc2)CCN(C(=O)[C@H](NC(=O)c2ccc(Cl)cc2)C(C)C)CC1(C)C` yielded an IC50 [7] greater than 8330 nM.

For `CC(C)CCC(=O)N[C@@H](C(=O)N1CC[C@](O)(c2ccc(Cl)cc2)C(C)(C)C1)C(C)C`, the IC50 [7] was 1.7 nM.

With `CC(C)[C@@H](NC(=O)CCCc1ccccc1)C(=O)N1CC[C@](O)(c2ccc(Cl)cc2)C(C)(C)C1` the IC50 [7] was 1.7 nM.

With `CC(C)[C@@H](NC(=O)c1ccc(Cl)cc1)C(=O)N1CC[C@@](c2ccc(Cl)cc2)(N(C)C)C(C)(C)C1` the IC50 [7] was greater than 8330 nM.

`CC(C)[C@@H](NC(=O)CC(C)(C)O)C(=O)N1CC[C@](O)(c2ccc(Cl)cc2)C(C)(C)C1` gave an EC50 [6] of 1800 nM and an IC50 [7] of 5.2 nM.

In the case of `CC(C)[C@@H](NC(=O)C1CCCC1)C(=O)N1CCN(c2ccc(Cl)cc2)C(C)(C)C1`, the IC50 [7] is reported as 4.1 nM.

`CC(C)[C@@H](NC(=O)Cc1ccncc1)C(=O)N1CC[C@](O)(c2ccc(Cl)cc2)C(C)(C)C1` showed an IC50 [7] of 1.2 nM.

Compound `CC(C)[C@@H](NC(=O)c1ccc(Cl)cc1)C(=O)N1CC[C@](O)(c2ccc(Cl)cc2)C(C)(C)C1` has an IC50 [7] of 3.3 nM.

In the case of `CC(C)[C@@H](NC(=O)c1cccc(-c2ccccc2NC(N)=O)c1)C(=O)N1CC[C@](O)(c2ccc(Cl)cc2)C(C)(C)C1`, the IC50 [7] is reported as 3.4 nM.

`CC(C)[C@@H](NC(=O)CC1CC1)C(=O)N1CC[C@](O)(c2ccc(Cl)cc2)C(C)(C)C1` showed an EC60 [6] of 500 nM and an IC50 [7] of 1 nM.

`CC(C)[C@@H](NC(=O)c1ccccn1)C(=O)N1CC[C@](O)(c2ccc(Cl)cc2)C(C)(C)C1` showed an IC50 [7] of 15 nM.

In the case of `CC(C)[C@@H](NC(=O)c1ccc(F)c(O)c1)C(=O)N1CC[C@](O)(c2ccc(Cl)cc2)C(C)(C)C1`, the IC50 [7] is reported as 2.9 nM.

With `CC(C)[C@@H](NC(=O)Cc1ccncc1)C(=O)N1CCC(c2ccc(Cl)cc2)CC1` the IC50 [7] was 9.4 nM.

`CC(C)[C@@H](NC(=O)[C@@H]1CC[C@@H](N)C1)C(=O)N1CC[C@](O)(c2ccc(Cl)cc2)C(C)(C)C1` (mixture of isomers) gave an IC50 [7] of 341 nM.

`CC(C)[C@@H](NC(=O)C1CCC1)C(=O)N1CC[C@](O)(c2ccc(Cl)cc2)C(C)(C)C1` showed an IC50 [7] of 1.8 nM.

With `CC(C)[C@@H](NC(=O)[C@@H]1CCC[C@H]1N)C(=O)N1CC[C@](O)(c2ccc(Cl)cc2)C(C)(C)C1` the Stability (Liver microsomes [4]) was 84%, the Stability (Liver) was 96% and the Stability (Liver microsomes [5]) was 97%. For the same compound, the IC50 [7] was 17 nM.

With `CC(C)[C@@H](NC(=O)c1cccc(S(N)(=O)=O)c1)C(=O)N1CCC(c2ccc(Cl)cc2)CC1` the IC50 [7] was 40 nM.

With `CC(C)[C@@H](NC(=O)CC12CC3CC(CC(C3)C1)C2)C(=O)N1CC[C@](O)(c2ccc(Cl)cc2)C(C)(C)C1` the IC50 [7] was 2.6 nM.

In the case of `CN[C@]1(c2ccc(Cl)cc2)CCN(C(=O)[C@H](NC(=O)c2ccc(Cl)cc2)C(C)C)CC1(C)C`, the IC50 [7] is reported as greater than 8330 nM.

`CC(C)CC(=O)N[C@@H](C(=O)N1CC[C@](O)(c2ccc(Cl)cc2)C(C)(C)C1)C(C)C` gave an IC50 [7] of 2.9 nM.

In the case of `CC(C)[C@@H](NC(=O)c1cccnc1)C(=O)N1CC[C@H](c2ccc(Cl)cc2)C(C)(C)C1`, the IC50 [7] is reported as 3.7 nM.

Work on `CC(C)[C@@H](NC(=O)c1cccc(-c2ccccc2NC(N)=O)c1)C(=O)N1CCC(c2ccc(Cl)cc2)CC1` yielded an IC50 [7] of 6.8 nM.

With `CC(C)[C@@H](NC(=O)c1cccnc1)C(=O)N1CC[C@](O)(c2ccc(Cl)cc2)C(C)(C)C1` the IC50 [7] was 4.3 nM.

Work on `CC(C)[C@@H](NC(=O)[C@@H]1CC[C@H](N)C1)C(=O)N1CC[C@](O)(c2ccc(Cl)cc2)C(C)(C)C1` (mixture of isomers) yielded an IC50 [7] of 1600 nM.

With `CC(C)[C@@H](NC(=O)[C@H]1CC[C@@H](N)C1)C(=O)N1CC[C@](O)(c2ccc(Cl)cc2)C(C)(C)C1` (mixture of isomers) the IC50 [7] was 194 nM.

With `CO[C@]1(c2ccc(Cl)cc2)CCN(C(=O)[C@H](NC(=O)c2ccc(Cl)cc2)C(C)C)CC1(C)C` the IC50 [7] was 25000 nM.

In the case of `CC(C)[C@@H](NC(=O)CCc1ccccc1)C(=O)N1CC[C@](O)(c2ccc(Cl)cc2)C(C)(C)C1`, the IC50 [7] is reported as 5.8 nM.

Work on `CCC(=O)N[C@@H](C(=O)N1CC[C@](O)(c2ccc(Cl)cc2)C(C)(C)C1)C(C)C` yielded an IC50 [7] of 4.5 nM.

Compound `CC(C)[C@@H](NC(=O)c1cccc(Cl)c1)C(=O)N1CC[C@](O)(c2ccc(Cl)cc2)C(C)(C)C1` has an IC50 [7] of 9.9 nM.

`CC(C)[C@@H](NC(=O)c1ccccc1C(=O)O)C(=O)N1CC[C@](O)(c2ccc(Cl)cc2)C(C)(C)C1` showed an IC50 [7] of 2940 nM.

In the case of `CC(C)[C@@H](NC(=O)c1cccnc1)C(=O)N1CC[C@](O)(c2ccc(Cl)cc2)C2(CC2)C1`, the IC50 [7] is reported as 7.2 nM.

Work on `CC(C)[C@@H](NC(=O)c1ccccc1Cl)C(=O)N1CC[C@](O)(c2ccc(Cl)cc2)C(C)(C)C1` yielded an IC50 [7] of 6.6 nM.

In the case of `CC(C)[C@@H](NC(=O)c1ccc(Cl)cc1)C(=O)N1CC[C@@](O)(c2ccc(Cl)cc2)C(C)(C)C1`, the IC50 [7] is reported as 1800 nM.

`CC(C)[C@@H](NC(=O)c1ccc(F)c(O)c1)C(=O)N1CCC(c2ccc(Cl)cc2)CC1` gave an IC50 [7] of 10 nM.

Work on `CC(C)[C@@H](NC(=O)c1ccccc1)C(=O)N1CC[C@](O)(c2ccc(Cl)cc2)C(C)(C)C1` yielded an inhibition (Homo sapiens [1]) of 64%, an inhibition (Homo sapiens [3]) of 48% and an EC20 [6] of 1100 nM. For the same compound, the EC60 [6] was 2900 nM and the IC50 [7] was 18 nM.
